The structures appear in SMILES notation. Where two headings read alike, the source gives them in different places. A value given as a limit tells only on which side of the number the result lay.

Experimental findings from patent US8778953B2, “Inhibitors of P38 map kinase” (Chroma Therapeutics Ltd., priority 2008, dated 2014) are described below.

In one data set the test system is THP-1 TNFα release. In words: LPS-stimulation of THP-1 cells, TNF-α release (ELISA). It counts as cell-based. The conditions noted are these: Homo sapiens; LPS-stimulated THP-1 cells, IC50 range; read-out: Inhibitor activity versus THP-1 TNFα release. The protocol: THP-1 cells were plated in 100 μl at a density of 4×10^4 cells/well in V-bottomed 96 well tissue culture treated plates and incubated at 37° C. in 5% CO2 for 16 hours. 2 hours after the addition of the inhibitor in 100 μl of tissue culture media, the cells were stimulated with LPS (E. coli strain 005:B5, Sigma) at a final concentration of 1 μg/ml and incubated at 37° C. in 5% CO2 for 6 hours. TNF-α levels were measured from cell-free supernatants by sandwich ELISA (R&D Systems #QTA00B).

For data set [1], the system named is human whole blood TNFα release. The data set is described as follows: LPS-stimulation of human whole blood, TNF-α release (ELISA). The conditions noted are these: LPS-stimulated human whole blood, IC50 range; read-out: Inhibitor activity versus human whole blood TNFα release. It is filed as cell-based. The protocol:
Whole blood was taken by venous puncture using heparinised vacutainers (Becton Dickinson) and diluted in an equal volume of RPMI1640 tissue culture media (Sigma). 100 μl was plated in V-bottomed 96 well tissue culture treated plates. 2 hours after the addition of the inhibitor in 100 μl of RPMI1640 media, the blood was stimulated with LPS (E coli strain 005:B5, Sigma) at a final concentration of 100 ng/ml and incubated at 37° C. in 5% CO2 for 6 hours. TNF-α levels were measured from cell-free supernatants by sandwich ELISA (R&D Systems #QTA00B).

A further data set addresses T1, p38 MAP Kinase a (Homo sapiens, UniProt Q16539).
T1 construct: purchased Upstate (Dundee UK)
The data set is described as follows: p38 MAP Kinase activity, radiometric filter-binding assay (Upstate). It counts as biochemical. The conditions noted are these: IC50 range; read-out: Inhibitor activity versus p38 MAPKa. The protocol: The ability of compounds to inhibit p38 MAP a Kinase activity was measured in an assay performed by Upstate (Dundee UK). In a final reaction volume of 25 μL, p38 MAP Kinase a (5-10 mU) is incubated with 25 mM Tris pH 7.5, 0.002 mMEGTA, 0.33 mg/mL myelin basic protein, 10 mM MgAcetate and [g-33p-ATP] (specific activity approx. 500 cpm/pmol, concentration as required). The reaction is initiated by the addition of the MgATP mix. After incubation for 40 minutes at room temperature, the reaction is stopped by the addition of 5 μL of a 3% phosphoric acid solution. 10 μL of the reaction is then spotted onto a P30 filtermat and washed three times for 5 minutes in 75 mM phosphoric acid and once in methanol prior to drying and scintillation counting.
Duplicate data points are generated from a 1/3 log dilution series of a stock solution in DMSO. Nine dilutions steps are made from a top concentration of 10 μM and a ‘no compound’ blank is included. The standard radiometric filter-binding assay is performed at an ATP concentration at, or close to, the Km. Data from scintillation counts are collected and subjected to free-fit analysis by Prism software. From the curve generated, the concentration giving 50% inhibition is determined and reported.

In data set [2] the test system is phosphorylation of MAPKAP-2 in HUT 78 cells. The data set is described as follows: p38 MAP kinase cellular assay: inhibition of phosphorylation of MAPKAP-2 in HUT 78 cells. It counts as cell-based. The conditions noted are these: for Ratio IC50s in HUT 78 to U937 cells: HUT 78 IC50 / U937 IC50; for IC50: Homo sapiens, HuT78, Table 3, HUT 78 non-monocytic cell line. The protocol:
(§1) U937 or HUT78 cells were plated in RPMI 1640, and were incubated at 37° C., 5% CO2 for 18 hours. 10 mM stocks of compounds were diluted media/0.1% DMSO to give a log or semi-log dilution series. The wells for ‘no treatment’ and ‘anisomycin’ were treated with 0.1% DMSO only. The cells were incubated at 37° C., 5% CO2 for a further 4 hours. Anisomycin was added to all wells except ‘no treatment’ at a final concentration of 10 μM. The cells were incubated at 37° C., 5% CO2 for 30 minutes before harvest. Plates were stood on ice whilst harvesting, and all following steps were carried out at 4° C. The cells were pelleted at 1000 rpm for 10 minutes at 4° C., the media aspirated, and the pellet washed with cold PBS. The pellets were lysed in 120 μl of SDS lysis buffer (62.5 mM Tris, pH 6.8, 2% SDS, 10% glycerol, 50 mM DTT, with protease inhibitors and phosphatase inhibitors added according to the manufacturer's recommendations). After 30 minutes on ice, the samples were sonicated for 5 seconds before centrifugation at 13,000 rpm 4° C. for 10 minutes to remove cell debris. 10 μl of the resulting gel samples were loaded per lane on NOVEX 4-12% Bis-Tris MOPS gels. Membranes from western transfer of gels were blotted with anti-phospho MAPKAP2, anti-phospho HSP27 and anti GAPDH according to the manufacturer's instructions. Signal was visualised using HRP-linked anti-rabbit or anti-mouse antibodies, ECL reagent and ECL film. IC50 values for the various compounds were visualised from the resulting photographic images, using both band-shift and signal intensity.

The subject of the next data set is U937 cells. The data set is described as follows: Cell accumulation of the acid in U937 cells. The conditions noted are these: U937 monocytic versus non-monocytic cell line. It counts as cell-based.
Data set [3] concerns phosphorylation of MAPKAP-2 in U937 cells. The data set is described as follows: p38 MAP kinase cellular assay: inhibition of phosphorylation of MAPKAP-2 in U937 cells. It is filed as cell-based. The conditions noted are these: for IC50: Homo sapiens, U-937; for Ratio cell IC50s to enzyme IC50: U937 cell IC50 / P38 enzyme IC50. The protocol: as §1
Where [4] appears, read: Table 2, U937 cells, read-out: Inhibition of phosphorylation of MAPKAP-2 in U937 cells (IC50).
Setting [5] is: Table 3, U937 monocyte cell line, read-out: Inhibition of phosphorylation of MAPKAP-2 in U937 cells (IC50, nM) (monocyte cell line).

T1 sequence (Q16539 whole entry): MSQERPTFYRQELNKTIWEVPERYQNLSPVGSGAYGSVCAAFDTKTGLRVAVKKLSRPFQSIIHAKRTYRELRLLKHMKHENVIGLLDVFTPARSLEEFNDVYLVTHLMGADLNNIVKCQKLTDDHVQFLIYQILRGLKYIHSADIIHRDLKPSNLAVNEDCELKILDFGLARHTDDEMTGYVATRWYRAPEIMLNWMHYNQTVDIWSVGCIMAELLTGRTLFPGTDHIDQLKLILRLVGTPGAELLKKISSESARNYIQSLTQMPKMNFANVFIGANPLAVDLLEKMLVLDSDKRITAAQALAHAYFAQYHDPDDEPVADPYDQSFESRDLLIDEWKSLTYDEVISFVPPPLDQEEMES

Regarding `CC(C)(NCCc1ccc(-n2c(N)c(C(=O)c3ccc(F)cc3F)ccc2=O)cc1)C(=O)OC1Cc2ccccc2C1` [Example 7, 2,3-dihydro-1H-inden-2-yl N-(2-{4-[6-amino-5-(2,4-difluorobenzoyl)-2-oxopyridin-1(2H)-yl]phenyl}ethyl)-2-methylalaninate], the figures for the IC50 (with THP-1 TNFα release; in data set [1]; on p38 MAP Kinase a) were below 100 nM, above 1000 nM and 100 to 1000 nM, respectively.
For `CC(C)(NCCc1ccc(-n2c(N)c(C(=O)c3ccc(F)cc3F)ccc2=O)cc1)C(=O)OC1CCCC1` [Example 1, Cyclopentyl N-(2-{4-[6-amino-5-(2,4-difluorobenzoyl)-2-oxopyridin-1(2H)-yl]phenyl}ethyl)-2-methylalaninate], in data set [2], the “Ratio IC50s in HUT 78 to U937 cells” value is 100. Moreover, the IC50 in data set [2] is 1000 nM; in data set [3] (setting [4]), 10 nM; in data set [3] (setting [5]), 10 nM; with THP-1 TNFα release it was below 100 nM; in data set [1] it was 100 to 1000 nM; on p38 MAP Kinase a it was below 100 nM. Further, the “Accumulation of the acid in cells (in words)” value with U937 cells was “only accumulates in the monocytic cell line”. Besides, the “Ratio cell IC50s to enzyme IC50” value in data set [3] is on record as 0.2. Further, in data set [3] (U937 cells), the “Potency in cells relative to the parent compound lacking the esterase motif” value is on record as 30 times.
In the case of `CC[C@](C)(NCCc1ccc(-n2c(N)c(C(=O)c3ccc(F)cc3F)ccc2=O)cc1)C(=O)OC(C)(C)C` [Example 6, tert-butyl N-(2-{4-[6-amino-5-(2,4-difluorobenzoyl)-2-oxopyridin-1(2H)-yl]phenyl}ethyl)-L-isovalinate], the IC50 with THP-1 TNFα release and at p38 MAP Kinase a was 100 to 1000 nM in each case.
On to `CC(C)(NCCCOc1cc(F)c(-n2c(N)c(C(=O)c3ccc(F)cc3F)ccc2=O)c(F)c1)C(=O)OC1CCCC1` [Example 9, Cyclopentyl N-(3-{4-[6-amino-5-(2,4-difluorobenzoyl)-2-oxopyridin-1(2H)-yl]-3,5-difluorophenoxy}propyl)-2-methylalaninate], for which the IC50 in the data set on THP-1 TNFα release is below 100 nM; in data set [1], 100 to 1000 nM; at p38 MAP Kinase a, below 100 nM.
For the molecule `CC(C)(NCCc1ccc(-n2c(N)c(C(=O)c3ccc(F)cc3F)ccc2=O)cc1)C(=O)O` [Example 11, N-(2-{4-[6-amino-5-(2,4-difluorobenzoyl)-2-oxopyridin-1(2H)yl]phenyl}ethyl)-2-methylalanine], at p38 MAP Kinase a, the IC50 is below 100 nM.
As to `CC(C)(C)OC(=O)C(C)(C)NCCCOc1cc(F)c(-n2c(N)c(C(=O)c3ccc(F)cc3F)ccc2=O)c(F)c1` [Example 10, tert-butyl N-(3-{4-[6-amino-5-(2,4-difluorobenzoyl)-2-oxopyridin-1(2H)-yl]-3,5-difluorophenoxy}propyl)-2-methylalaninate], the figures for the IC50 (with THP-1 TNFα release; in data set [1]; on p38 MAP Kinase a) were below 100 nM, above 1000 nM and below 100 nM, respectively.
Regarding `CC(C)(NCCc1cc(F)c(-n2c(N)c(C(=O)c3ccc(F)cc3F)ccc2=O)c(F)c1)C(=O)O` [Example 12, N-(2-{4-[6-amino-5-(2,4-difluorobenzoyl)-2-oxopyridin-1(2H)-yl]-3,5-difluorophenyl}ethyl)-2-methylalanine], the IC50 at p38 MAP Kinase a was below 100 nM.
On to `CC(C)(NCCc1ccc(-n2c(N)c(C(=O)c3ccc(F)cc3F)ccc2=O)cc1)C(=O)OC1CC2CCC1C2` (centres unmarked) [Example 8, bicyclo[2.2.1]hept-2-yl N-(2-{4-[6-amino-5-(2,4-difluorobenzoyl)-2-oxopyridin-1(2H)-yl]phenyl}ethyl)-2-methylalaninate], for which the figures for the IC50 (in the data set with THP-1 TNFα release; in data set [1]) were below 100 nM and above 1000 nM, respectively.
Turning to `Nc1c(C(=O)c2ccc(F)cc2F)ccc(=O)n1-c1ccc(CCNC2(C(=O)OC3CCCC3)CCCC2)cc1` [Example 4, Cyclopentyl 1-[(2-{4-[6-amino-5-(2,4-difluorobenzoyl)-2-oxopyridin-1(2H)-yl]phenyl}ethyl)amino]cyclopentanecarboxylate], the IC50 in the data set on THP-1 TNFα release was below 100 nM; in data set [1] it was above 1000 nM; on p38 MAP Kinase a, below 100 nM.
Turning to `Nc1c(C(=O)c2ccc(F)cc2F)ccc(=O)n1-c1ccccc1` [Parent Compound I, reference compound], the “Ratio IC50s in HUT 78 to U937 cells” value is given as 1.5 in data set [2] and “equipotent” in data set [2] (listed as compound I). Also, the IC50 in data set [2] came out at 450 nM; in data set [3] (setting [4]), 300 nM; in data set [3] (setting [5]), 300 nM. Also, in data set [3], the “Ratio cell IC50s to enzyme IC50” value is 6.
On to `CC(C)(NC(=O)Cc1ccc(-n2c(N)c(C(=O)c3ccc(F)cc3F)ccc2=O)cc1)C(=O)OC1CCCC1` [Example 3, Cyclopentyl N-({4-[6-amino-5-(2,4-difluorobenzoyl)-2-oxopyridin-1(2H)-yl]phenyl}acetyl)-2-methylalaninate], for which the IC50 was 100 to 1000 nM in the data set on THP-1 TNFα release, above 1000 nM in data set [1] and below 100 nM at p38 MAP Kinase a.
In the same order, the values of `CC[C@](C)(NCCc1ccc(-n2c(N)c(C(=O)c3ccc(F)cc3F)ccc2=O)cc1)C(=O)OC1CCCC1` [Example 5, Cyclopentyl N-(2-{4-[6-amino-5-(2,4-difluorobenzoyl)-2-oxopyridin-1(2H)-yl]phenyl}ethyl)-L-isovalinate] are below 100 nM, above 1000 nM and 100 to 1000 nM.
For the molecule `CC(C)(NCCCOc1cc(F)c(-n2c(N)c(C(=O)c3ccc(F)cc3F)ccc2=O)c(F)c1)C(=O)O` [Example 16, N-(3-{4-[6-amino-5-(2,4-difluorobenzoyl)-2-oxopyridin-1(2H)-yl]-3,5-difluorophenoxy}propyl)-2-methylalanine], the IC50 at p38 MAP Kinase a is below 100 nM.
In the case of `CC[C@](C)(NCCc1ccc(-n2c(N)c(C(=O)c3ccc(F)cc3F)ccc2=O)cc1)C(=O)O` [Example 14, N-(2-{4-[6-amino-5-(2,4-difluorobenzoyl)-2-oxopyridin-1(2H)-yl]phenyl}ethyl)-L-isovaline], on p38 MAP Kinase a, the IC50 was below 100 nM.
As for `CC(C)(NC(=O)Cc1ccc(-n2c(N)c(C(=O)c3ccc(F)cc3F)ccc2=O)cc1)C(=O)O` [Example 13], the IC50 at p38 MAP Kinase a is 100 to 1000 nM.
On to `Nc1c(C(=O)c2ccc(F)cc2F)ccc(=O)n1-c1ccc(CCNC2(C(=O)O)CCCC2)cc1` [Example 15, 1-[(2-{4-[6-amino-5-(2,4-difluorobenzoyl)-2-oxopyridin-1(2H)-yl]phenyl}ethyl)amino]cyclopentanecarboxylic acid], for which the IC50 on p38 MAP Kinase a lay in the range of 100 to 1000 nM.
As to `CC(C)(NCCc1cc(F)c(-n2c(N)c(C(=O)c3ccc(F)cc3F)ccc2=O)c(F)c1)C(=O)OC1CCCC1` [Example 2, Cyclopentyl N-(2-{4-[6-amino-5-(2,4-difluorobenzoyl)-2-oxopyridin-1(2H)-yl]-3,5-difluorophenyl}ethyl)-2-methylalaninate], the IC50 (in the data set with THP-1 TNFα release; in data set [1]; on p38 MAP Kinase a) was below 100 nM throughout.
